Measured values as given in patent US7297489B2, “Mutations in and genomic structure of HERG—a long QT syndrome gene” (University of Utah Research Foundation, priority 1998, dated 2007).
Like-named read-outs stand apart in the source and are kept apart here.

Key:
IKr (guinea pig heart) = biological target: T1, IKr (guinea pig heart) (Cavia porcellus, UniProt O08703); conditions: read-out: IC50 (blockers, methanesulfonanilides); cited from earlier work
T1 construct: host or cells: guinea pig cardiac myocytes (endogenous current)
T1 sequence (O08703 1-1294): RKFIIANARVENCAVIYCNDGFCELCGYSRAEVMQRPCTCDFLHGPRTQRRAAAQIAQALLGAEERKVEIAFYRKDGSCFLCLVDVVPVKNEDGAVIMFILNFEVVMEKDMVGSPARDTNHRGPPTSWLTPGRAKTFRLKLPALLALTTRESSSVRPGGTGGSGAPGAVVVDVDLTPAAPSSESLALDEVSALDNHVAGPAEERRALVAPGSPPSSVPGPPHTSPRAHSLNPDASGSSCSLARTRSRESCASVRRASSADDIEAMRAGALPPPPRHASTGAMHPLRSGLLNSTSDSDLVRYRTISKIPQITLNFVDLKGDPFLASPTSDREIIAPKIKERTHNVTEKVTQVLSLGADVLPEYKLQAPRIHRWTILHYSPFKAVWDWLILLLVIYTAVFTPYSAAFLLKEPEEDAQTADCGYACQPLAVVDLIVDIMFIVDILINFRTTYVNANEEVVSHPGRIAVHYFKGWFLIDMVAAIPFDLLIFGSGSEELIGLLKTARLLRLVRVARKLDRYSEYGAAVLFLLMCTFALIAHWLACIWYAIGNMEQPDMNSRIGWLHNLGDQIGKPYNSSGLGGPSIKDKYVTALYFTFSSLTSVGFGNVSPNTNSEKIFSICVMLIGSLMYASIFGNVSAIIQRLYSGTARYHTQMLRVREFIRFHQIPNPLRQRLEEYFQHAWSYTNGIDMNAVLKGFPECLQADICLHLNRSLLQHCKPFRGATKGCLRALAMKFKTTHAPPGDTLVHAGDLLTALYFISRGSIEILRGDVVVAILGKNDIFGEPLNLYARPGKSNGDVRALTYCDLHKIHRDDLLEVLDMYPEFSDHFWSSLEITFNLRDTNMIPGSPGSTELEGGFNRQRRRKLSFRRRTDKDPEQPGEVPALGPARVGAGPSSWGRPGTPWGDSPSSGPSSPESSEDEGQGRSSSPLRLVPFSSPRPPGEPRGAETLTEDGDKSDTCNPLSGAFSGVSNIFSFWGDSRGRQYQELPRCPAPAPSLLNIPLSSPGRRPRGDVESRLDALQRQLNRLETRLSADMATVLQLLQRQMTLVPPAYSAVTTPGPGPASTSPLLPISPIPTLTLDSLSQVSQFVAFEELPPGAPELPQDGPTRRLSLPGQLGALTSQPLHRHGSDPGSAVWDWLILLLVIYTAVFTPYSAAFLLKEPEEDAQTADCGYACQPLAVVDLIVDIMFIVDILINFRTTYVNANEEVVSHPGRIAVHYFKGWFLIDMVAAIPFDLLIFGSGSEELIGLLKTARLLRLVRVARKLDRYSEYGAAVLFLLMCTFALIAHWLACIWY

HERG [1] = biological target: T2, HERG (Homo sapiens, UniProt Q12809); assay: HERG current in Xenopus oocytes injected with HERG cRNA, two-microelectrode voltage clamp; conditions: for effect on current magnitude or voltage-dependence of channel activation: 1 mM within 30 min of application
T2 sequence (Q12809 whole entry): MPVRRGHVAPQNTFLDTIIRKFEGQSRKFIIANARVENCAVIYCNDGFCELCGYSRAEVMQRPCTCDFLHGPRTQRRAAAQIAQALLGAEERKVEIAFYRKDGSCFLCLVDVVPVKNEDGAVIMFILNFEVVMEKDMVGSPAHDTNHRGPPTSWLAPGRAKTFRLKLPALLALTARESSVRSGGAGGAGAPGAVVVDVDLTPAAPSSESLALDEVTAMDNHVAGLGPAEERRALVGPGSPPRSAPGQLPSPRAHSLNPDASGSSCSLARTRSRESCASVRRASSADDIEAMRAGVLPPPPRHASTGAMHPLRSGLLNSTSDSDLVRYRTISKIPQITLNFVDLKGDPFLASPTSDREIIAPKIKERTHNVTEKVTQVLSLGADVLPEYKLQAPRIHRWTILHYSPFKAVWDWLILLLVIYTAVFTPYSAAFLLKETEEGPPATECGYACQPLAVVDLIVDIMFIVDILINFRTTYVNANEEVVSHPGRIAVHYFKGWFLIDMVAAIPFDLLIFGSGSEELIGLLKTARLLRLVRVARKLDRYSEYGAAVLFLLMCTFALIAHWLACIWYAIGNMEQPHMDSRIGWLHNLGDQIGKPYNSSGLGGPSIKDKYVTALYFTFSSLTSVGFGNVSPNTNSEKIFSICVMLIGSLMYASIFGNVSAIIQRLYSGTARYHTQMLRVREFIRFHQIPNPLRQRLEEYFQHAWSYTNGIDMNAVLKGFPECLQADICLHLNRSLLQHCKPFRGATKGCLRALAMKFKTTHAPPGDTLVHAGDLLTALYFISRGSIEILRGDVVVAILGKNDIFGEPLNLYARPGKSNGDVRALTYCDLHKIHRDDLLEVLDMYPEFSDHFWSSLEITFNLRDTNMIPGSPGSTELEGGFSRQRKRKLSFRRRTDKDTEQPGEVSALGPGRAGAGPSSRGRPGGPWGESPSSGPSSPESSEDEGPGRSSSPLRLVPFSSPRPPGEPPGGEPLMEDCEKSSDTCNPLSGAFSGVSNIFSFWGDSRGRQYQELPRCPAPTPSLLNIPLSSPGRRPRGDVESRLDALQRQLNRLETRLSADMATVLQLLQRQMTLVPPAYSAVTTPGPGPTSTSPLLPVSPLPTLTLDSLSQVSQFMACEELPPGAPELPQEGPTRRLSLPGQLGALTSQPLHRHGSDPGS
Method: (§1) The characteristics of the expressed channel were studied in oocytes 2-6 days after cRNA injection using standard two-microelectrode voltage clamp techniques. HERG current was activated in response to test potentials >−50 mV. […] Deactivation of current (tail current) was assessed after return of the membrane to the holding potential of −70 mV. […] The voltage-dependence of channel activation was assessed by plotting the relative amplitude of tail currents as a function of test potential (FIG. 1D).
(§2) Xenopus frogs were anesthetized by immersion in 0.2% tricaine for 15-30 min. Ovarian lobes were digested with 2 mg/ml Type 1A collagenase (Sigma) in Ca^2+-free ND96 solution for 1.5 hours to remove follicle cells. […] Barth's solution contained (in mM): 88 NaCl, 1 KCl, 0.4 CaCl2, 0.33 Ca(NO3)2, 1 MgSO4, 2.4 NaHCO3, 10 HEPES; pH 7.4.
(§3) Unless indicated, oocytes were bathed in ND96 solution. This solution contained (in mM): 96 NaCl, 2 KCl, 1 MgCl2, 1.8 CaCl2, 5 HEPES; pH 7.6. In some experiments, KCl was varied by equimolar substitution with NaCl. Currents were recorded at room temperature (21-23° C.) using standard two-microelectrode voltage clamp techniques. Glass microelectrodes were filled with 3 M KCl and their tips broken to obtain tip resistances of 1-3 MΩ for the voltage-recording electrode and 0.6-1 MΩ for the current-passing electrode. Oocytes were voltage-clamped with a Dagan TEV-200 amplifier. Voltage commands were generated using pClamp software (ver. 6, Axon Instruments), a 486DX2 personal computer and a TL-1 D/A interface (Axon Instruments). Current signals were digitally sampled at a rate equal to 2-4 times the low-pass cut-off frequency (−3 db) of a 4-pole Bessel filter. Unless indicated, currents were corrected for leak and capacitance using standard, on-line P/3 leak subtraction. The oocyte membrane potential was held at −70 mV between test pulses, applied at a rate of 1-3 pulses/min. Data analyses, including exponential fitting of current traces, were performed using pCLAMP. […] Data are expressed as the mean±SEM (n=number of oocytes).

IKr of cardiac myocytes = conditions: cited from earlier work
rcKATP-1 = biological target: T3, rcKATP-1 (Rattus norvegicus, UniProt P48548); conditions: expressed in HEK293 cells; cited from earlier work
T3 sequence (P48548 1-419): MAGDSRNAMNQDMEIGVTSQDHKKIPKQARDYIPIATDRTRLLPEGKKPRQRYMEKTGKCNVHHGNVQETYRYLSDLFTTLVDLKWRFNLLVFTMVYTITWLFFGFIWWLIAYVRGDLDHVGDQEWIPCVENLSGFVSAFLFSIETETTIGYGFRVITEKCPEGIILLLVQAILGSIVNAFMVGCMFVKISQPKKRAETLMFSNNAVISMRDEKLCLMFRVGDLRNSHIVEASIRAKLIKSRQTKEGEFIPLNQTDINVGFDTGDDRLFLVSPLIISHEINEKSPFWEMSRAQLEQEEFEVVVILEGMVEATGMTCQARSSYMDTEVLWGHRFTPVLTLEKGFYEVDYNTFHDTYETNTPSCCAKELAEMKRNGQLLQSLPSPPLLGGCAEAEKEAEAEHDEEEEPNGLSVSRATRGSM

HERG [2] = biological target: T2, HERG
Method: as §1, §2, §3

IKr (mouse AT-1 cells) = biological target: T4, IKr (mouse AT-1 cells) (Mus musculus, UniProt O35219); conditions: cited from earlier work
T4 sequence (O35219 1-1162): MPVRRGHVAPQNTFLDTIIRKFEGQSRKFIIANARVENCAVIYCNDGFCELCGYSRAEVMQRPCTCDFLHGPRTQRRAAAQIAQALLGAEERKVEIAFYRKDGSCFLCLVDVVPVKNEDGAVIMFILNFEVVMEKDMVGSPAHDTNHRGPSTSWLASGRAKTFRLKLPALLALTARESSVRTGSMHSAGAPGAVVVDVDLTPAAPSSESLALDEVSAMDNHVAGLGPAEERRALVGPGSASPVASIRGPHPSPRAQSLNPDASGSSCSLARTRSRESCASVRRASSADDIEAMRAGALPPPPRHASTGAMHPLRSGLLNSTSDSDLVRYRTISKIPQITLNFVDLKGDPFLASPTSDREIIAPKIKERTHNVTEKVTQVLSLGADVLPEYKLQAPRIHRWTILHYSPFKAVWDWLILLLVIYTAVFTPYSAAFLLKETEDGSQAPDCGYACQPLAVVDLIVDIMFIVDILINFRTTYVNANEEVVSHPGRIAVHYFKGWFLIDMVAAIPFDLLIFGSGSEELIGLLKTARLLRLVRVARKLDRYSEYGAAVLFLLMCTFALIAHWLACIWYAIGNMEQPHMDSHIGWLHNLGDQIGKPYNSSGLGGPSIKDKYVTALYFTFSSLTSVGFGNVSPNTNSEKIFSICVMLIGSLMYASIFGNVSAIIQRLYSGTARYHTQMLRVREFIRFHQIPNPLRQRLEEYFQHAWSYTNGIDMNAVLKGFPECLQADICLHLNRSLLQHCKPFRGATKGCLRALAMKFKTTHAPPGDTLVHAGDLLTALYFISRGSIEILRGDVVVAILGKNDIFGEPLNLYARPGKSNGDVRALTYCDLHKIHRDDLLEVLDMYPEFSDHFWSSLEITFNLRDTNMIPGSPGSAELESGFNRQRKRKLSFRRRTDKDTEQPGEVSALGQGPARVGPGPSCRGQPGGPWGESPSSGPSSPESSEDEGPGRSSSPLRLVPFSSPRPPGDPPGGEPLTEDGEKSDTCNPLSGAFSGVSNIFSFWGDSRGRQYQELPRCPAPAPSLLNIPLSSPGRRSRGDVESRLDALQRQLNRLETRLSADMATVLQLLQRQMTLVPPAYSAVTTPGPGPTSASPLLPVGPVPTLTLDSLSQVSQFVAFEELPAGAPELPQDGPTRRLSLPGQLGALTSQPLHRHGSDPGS

CS(=O)(=O)Nc1ccc2c(c1)[C@H](O)CC1(CCN([C@@H]3CCc4cc(C#N)ccc4C3)CC1)O2 [MK-499]
IC50 (IKr (guinea pig heart)): 44 nM

Nc1ncnc2c1nc(Br)n2[C@@H]1O[C@@H]2COP(=O)(O)O[C@H]2[C@H]1O [8-Br-cAMP]
activation of HERG (HERG [1]): not activated | effect on current magnitude or voltage-dependence of channel activation (HERG [1]): Neither compound had a significant effect

[Co+2] [Co^2+, cobalt]
block of IKr (IKr of cardiac myocytes; 2 mM cobalt): blocked | block of HERG current (HERG [1]; 2 mM Co^2+, n=2): 52%

[K+] [K^+]
increase of HERG current (HERG [1]; [K^+]e 5 mM versus 2 mM): 40%

CC(C)NCC(O)c1ccc(O)c(O)c1 (stereo not shown) [isoproterenol]
increase of IKr (IKr of cardiac myocytes; cardiac myocytes): does not increase

COc1ccc(Cl)cc1C(=O)NCCc1ccc(S(=O)(=O)NC(=O)NC2CCCCC2)cc1 [glibenclamide]
block of the channel (rcKATP-1): not blocked

[La+3] [La^3+, lanthanum]
block of IKr (IKr of cardiac myocytes; 10-100 μM lanthanum): blocked | Blockers La^3+, Co^2+ (HERG [2]): + | half-point of activation (isochronal activation curve) (HERG [2]): +23 mV | Blockers La^3+, Co^2+ (IKr (mouse AT-1 cells)): +

Nc1nc2c(nc(Br)n2[C@@H]2O[C@@H]3COP(=O)(O)O[C@H]3[C@H]2O)c(=O)[nH]1 [8-Br-cGMP]
effect on current magnitude or voltage-dependence of channel activation (HERG [1]): Neither compound had a significant effect
